Measurements as given in ChEMBL document CHEMBL3286148, “Aminoazabenzimidazoles, a novel class of orally active antimalarial agents” (J Med Chem, 2014).
In brackets after ≈: the same amount, converted by molar mass.

System: Plasmodium falciparum
Assay: microbe, parasite or virus in culture
Settings: W2, 72 h
Description: Antiplasmodial activity against Plasmodium falciparum W2 after 72 hrs by SYBR I method

**Q.** Which IC50 does the source give for O=C1C(O)=C([C@H]2CC[C@H](c3ccc(Cl)cc3)CC2)C(=O)c2ccccc21 [ATOVAQUONE] here?
**A.** 0.00116 µM

**Q.** Which IC50 does the source give for Nc1nc2ccc(C(F)(F)F)cc2n1CC(O)c1ccc(C(F)(F)F)cc1Cl (racemic) here?
**A.** 0.0241 µM

**Q.** For Nc1nc2ccccc2n1-c1ccccc1O, which IC50 is on record?
**A.** 0.26 µM

**Q.** Which IC50 does the source give for Nc1ncccc1CC(O)c1cccc(Cl)c1Cl (racemic) here?
**A.** 0.11 µM

System: Plasmodium falciparum
Assay: microbe, parasite or virus in culture
Settings: K1, 72 h

**Q.** For O=C1C(O)=C([C@H]2CC[C@H](c3ccc(Cl)cc3)CC2)C(=O)c2ccccc21 [ATOVAQUONE], which IC50 is on record?
**A.** 0.00226 µM

**Q.** For Nc1nc2ccc(C(F)(F)F)cc2n1CC(O)c1ccc(C(F)(F)F)cc1Cl (racemic), which IC50 is on record?
**A.** 0.01 µM

**Q.** Which IC50 does the source give for Nc1nc2ccccc2n1-c1ccccc1O here?
**A.** 0.054 µM

**Q.** Which IC50 does the source give for Nc1ncccc1CC(O)c1cccc(Cl)c1Cl (racemic) here?
**A.** 0.05 µM

System: Plasmodium falciparum
Assay: microbe, parasite or virus in culture
Settings: Dd2, 72 h
Description: Antiplasmodial activity against Plasmodium falciparum Dd2 after 72 hrs by SYBR I method

**Q.** With Nc1nc2ccc(C(F)(F)F)cc2n1CC(O)c1ccc(C(F)(F)F)cc1Cl (racemic) as the molecule, how does the IC50 read?
**A.** 0.0487 µM

**Q.** With Nc1nc2ccccc2n1-c1ccccc1O as the molecule, how does the IC50 read?
**A.** 0.329 µM

**Q.** For Nc1ncccc1CC(O)c1cccc(Cl)c1Cl (racemic), which IC50 is on record?
**A.** 0.41 µM

System: not listed separately
Assay: Fraction unbound in human plasma
Format: ADME, cell-free
Settings: not given

**Q.** Which fraction unbound does the source give for Nc1nc2ccc(C(F)(F)F)cc2n1CC(O)c1ccc(C(F)(F)F)cc1Cl (racemic) here?
**A.** < 0.01

Target: Cytochrome P450 2C9 (Homo sapiens, UniProt P11712)
Assay: Inhibition of CYP2C9 (unknown origin)
Format: ADME
Settings: not given

Cytochrome P450 2C9, sequence (P11712 whole entry): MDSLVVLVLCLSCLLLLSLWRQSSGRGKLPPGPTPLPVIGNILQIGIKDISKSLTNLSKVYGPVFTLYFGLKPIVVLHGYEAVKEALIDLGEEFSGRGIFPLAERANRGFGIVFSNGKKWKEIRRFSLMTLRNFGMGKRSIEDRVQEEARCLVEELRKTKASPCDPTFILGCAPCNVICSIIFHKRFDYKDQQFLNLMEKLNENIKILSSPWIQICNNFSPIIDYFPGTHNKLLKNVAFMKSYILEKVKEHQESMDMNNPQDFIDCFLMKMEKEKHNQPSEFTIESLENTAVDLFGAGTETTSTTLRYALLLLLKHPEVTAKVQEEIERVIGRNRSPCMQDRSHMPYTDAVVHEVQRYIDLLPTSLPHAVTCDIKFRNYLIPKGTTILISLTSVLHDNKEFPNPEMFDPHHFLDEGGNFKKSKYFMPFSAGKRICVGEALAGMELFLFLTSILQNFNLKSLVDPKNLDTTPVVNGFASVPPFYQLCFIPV

**Q.** With Nc1nc2ccc(C(F)(F)F)cc2n1CC(O)c1ccc(C(F)(F)F)cc1Cl (racemic) as the molecule, how does the IC50 read?
**A.** 27.9 µM

Target: T1, Cytochrome P450 1A2 (Homo sapiens, UniProt P05177)
T1 sequence (P05177 whole entry): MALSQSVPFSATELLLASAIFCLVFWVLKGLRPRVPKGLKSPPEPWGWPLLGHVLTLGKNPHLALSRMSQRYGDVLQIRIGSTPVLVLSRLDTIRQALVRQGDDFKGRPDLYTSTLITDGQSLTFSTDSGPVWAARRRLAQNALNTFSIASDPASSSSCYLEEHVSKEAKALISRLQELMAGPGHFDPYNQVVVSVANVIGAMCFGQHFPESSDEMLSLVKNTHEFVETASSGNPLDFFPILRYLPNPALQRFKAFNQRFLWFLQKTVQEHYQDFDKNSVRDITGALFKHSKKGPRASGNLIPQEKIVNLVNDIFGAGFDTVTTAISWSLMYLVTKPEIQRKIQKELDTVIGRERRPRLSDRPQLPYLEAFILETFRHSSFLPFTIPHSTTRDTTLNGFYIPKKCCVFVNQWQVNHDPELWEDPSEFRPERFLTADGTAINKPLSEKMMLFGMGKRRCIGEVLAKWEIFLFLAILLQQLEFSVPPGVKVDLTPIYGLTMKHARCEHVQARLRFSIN
Assay: Inhibition of CYP1A2 (unknown origin)
Format: ADME
Settings: not given

**Q.** For Nc1nc2ccc(C(F)(F)F)cc2n1CC(O)c1ccc(C(F)(F)F)cc1Cl (racemic), which IC50 is on record?
**A.** 29.4 µM

System: not listed separately
Assay: Clearance in human liver microsomes
Format: ADME
Settings: read-out: CLH

**Q.** Which microsomal CLint does the source give for Nc1nc2ccc(C(F)(F)F)cc2n1CC(O)c1ccc(C(F)(F)F)cc1Cl (racemic) here?
**A.** 9 µL/min/mg

Target: Cytochrome P450 2C19 (Homo sapiens, UniProt P33261)
Assay: Inhibition of CYP2C19 (unknown origin)
Format: ADME
Settings: not given

Cytochrome P450 2C19, sequence (P33261 whole entry): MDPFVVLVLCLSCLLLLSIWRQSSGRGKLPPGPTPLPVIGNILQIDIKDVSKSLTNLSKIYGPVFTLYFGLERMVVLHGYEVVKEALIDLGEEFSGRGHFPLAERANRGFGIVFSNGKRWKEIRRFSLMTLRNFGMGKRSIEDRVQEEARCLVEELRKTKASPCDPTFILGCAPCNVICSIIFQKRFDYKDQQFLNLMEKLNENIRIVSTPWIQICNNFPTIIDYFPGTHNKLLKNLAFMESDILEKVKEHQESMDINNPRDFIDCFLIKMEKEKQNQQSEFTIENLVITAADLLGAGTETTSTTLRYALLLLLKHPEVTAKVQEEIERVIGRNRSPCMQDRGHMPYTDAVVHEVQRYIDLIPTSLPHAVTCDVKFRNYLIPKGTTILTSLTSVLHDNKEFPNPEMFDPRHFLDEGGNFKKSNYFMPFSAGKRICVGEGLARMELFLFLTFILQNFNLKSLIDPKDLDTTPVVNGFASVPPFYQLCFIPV

**Q.** For Nc1nc2ccc(C(F)(F)F)cc2n1CC(O)c1ccc(C(F)(F)F)cc1Cl (racemic), which IC50 is on record?
**A.** 2.7 µM

System: not listed separately
Assay: Clearance in rat hepatocytes assessed per 1E6 cells
Format: ADME, cell-based, Hepatocyte
Settings: read-out: CLH

**Q.** For Nc1nc2ccc(C(F)(F)F)cc2n1CC(O)c1ccc(C(F)(F)F)cc1Cl (racemic), which hepatocyte CLint is on record?
**A.** 31 µL/min/1e6 cells

System: Plasmodium falciparum
Assay: microbe, parasite or virus in culture
Settings: NF54, 72 h

**Q.** Which IC50 does the source give for O=C1C(O)=C([C@H]2CC[C@H](c3ccc(Cl)cc3)CC2)C(=O)c2ccccc21 [ATOVAQUONE] here?
**A.** 0.00136 µM

**Q.** For Nc1nc2ccc(C(F)(F)F)cc2n1CC(O)c1ccc(C(F)(F)F)cc1Cl (racemic), which IC50 is on record?
**A.** 0.053 µM

**Q.** With Nc1nc2ccccc2n1-c1ccccc1O as the molecule, how does the IC50 read?
**A.** 0.084 µM

**Q.** For Nc1ncccc1CC(O)c1cccc(Cl)c1Cl (racemic), which IC50 is on record?
**A.** 0.18 µM

System: not listed separately
Assay: Aqueous solubility of the compound
Format: physicochemical
Settings: buffer

**Q.** For Nc1nc2ccc(C(F)(F)F)cc2n1CC(O)c1ccc(C(F)(F)F)cc1Cl (racemic), which solubility is on record?
**A.** 3 µM (≈ 1.27 µg/mL)

Target: Cytochrome P450 3A4 (Homo sapiens, UniProt P08684)
Assay: Inhibition of CYP3A4 (unknown origin)
Format: ADME
Settings: not given

Cytochrome P450 3A4, sequence (P08684 whole entry): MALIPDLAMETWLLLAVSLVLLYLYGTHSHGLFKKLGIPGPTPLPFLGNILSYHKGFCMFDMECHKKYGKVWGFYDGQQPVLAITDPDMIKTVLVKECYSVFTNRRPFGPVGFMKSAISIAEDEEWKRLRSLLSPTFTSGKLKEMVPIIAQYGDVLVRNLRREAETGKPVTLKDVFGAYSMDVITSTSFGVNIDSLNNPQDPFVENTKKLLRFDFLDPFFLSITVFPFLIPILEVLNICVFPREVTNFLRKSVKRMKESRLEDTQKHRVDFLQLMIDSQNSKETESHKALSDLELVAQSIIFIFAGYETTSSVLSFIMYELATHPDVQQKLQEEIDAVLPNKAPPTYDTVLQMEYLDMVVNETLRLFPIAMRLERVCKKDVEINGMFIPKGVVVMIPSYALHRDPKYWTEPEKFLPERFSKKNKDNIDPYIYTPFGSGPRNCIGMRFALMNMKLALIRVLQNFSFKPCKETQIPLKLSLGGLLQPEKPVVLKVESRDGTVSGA

**Q.** With Nc1nc2ccc(C(F)(F)F)cc2n1CC(O)c1ccc(C(F)(F)F)cc1Cl (racemic) as the molecule, how does the IC50 read?
**A.** > 30 µM

System: not listed separately
Assay: Lipophilicity, log D of the compound
Format: physicochemical
Settings: octanol/water

**Q.** With Nc1nc2ccc(C(F)(F)F)cc2n1CC(O)c1ccc(C(F)(F)F)cc1Cl (racemic) as the molecule, how does the logD read?
**A.** > 4.6

System: not listed separately
Assay: Selectivity index, ratio of IC50 for human A549 cells to IC50 for Plasmodium falciparum
Format: toxicity, cell-based
Settings: read-out: Ratio IC50

**Q.** For Nc1nc2ccc(C(F)(F)F)cc2n1CC(O)c1ccc(C(F)(F)F)cc1Cl (racemic), which selectivity ratio is on record?
**A.** 94

**Q.** With Nc1nc2ccccc2n1-c1ccccc1O as the molecule, how does the selectivity ratio read?
**A.** 1190

**Q.** For Nc1ncccc1CC(O)c1cccc(Cl)c1Cl (racemic), which selectivity ratio is on record?
**A.** 294

System: Plasmodium falciparum
Assay: microbe, parasite or virus in culture
Settings: 7G8, 72 h
Description: Antiplasmodial activity against Plasmodium falciparum 7G8 after 72 hrs by SYBR I method

**Q.** With O=C1C(O)=C([C@H]2CC[C@H](c3ccc(Cl)cc3)CC2)C(=O)c2ccccc21 [ATOVAQUONE] as the molecule, how does the IC50 read?
**A.** 0.00232 µM

**Q.** For Nc1nc2ccc(C(F)(F)F)cc2n1CC(O)c1ccc(C(F)(F)F)cc1Cl (racemic), which IC50 is on record?
**A.** 0.00325 µM

**Q.** Which IC50 does the source give for Nc1nc2ccccc2n1-c1ccccc1O here?
**A.** 0.0661 µM

**Q.** With Nc1ncccc1CC(O)c1cccc(Cl)c1Cl (racemic) as the molecule, how does the IC50 read?
**A.** 0.0293 µM

Target: Cytochrome P450 2D6 (Homo sapiens, UniProt P10635)
Assay: Inhibition of CYP2D6 (unknown origin)
Format: ADME
Settings: not given

Cytochrome P450 2D6, sequence (P10635 whole entry): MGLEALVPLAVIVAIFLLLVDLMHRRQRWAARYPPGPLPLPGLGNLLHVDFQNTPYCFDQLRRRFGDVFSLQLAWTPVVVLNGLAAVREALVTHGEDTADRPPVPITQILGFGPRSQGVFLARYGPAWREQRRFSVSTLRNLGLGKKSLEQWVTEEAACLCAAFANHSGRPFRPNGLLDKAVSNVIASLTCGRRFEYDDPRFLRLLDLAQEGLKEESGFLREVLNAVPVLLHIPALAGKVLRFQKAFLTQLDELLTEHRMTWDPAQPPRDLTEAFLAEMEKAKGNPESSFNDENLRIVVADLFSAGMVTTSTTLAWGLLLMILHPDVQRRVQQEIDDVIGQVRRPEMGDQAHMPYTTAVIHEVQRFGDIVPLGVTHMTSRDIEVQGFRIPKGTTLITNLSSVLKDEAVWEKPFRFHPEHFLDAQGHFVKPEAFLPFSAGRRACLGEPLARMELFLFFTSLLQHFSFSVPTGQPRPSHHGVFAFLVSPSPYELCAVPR

**Q.** Which IC50 does the source give for Nc1nc2ccc(C(F)(F)F)cc2n1CC(O)c1ccc(C(F)(F)F)cc1Cl (racemic) here?
**A.** 26.3 µM

System: Plasmodium falciparum
Assay: microbe, parasite or virus in culture
Settings: SB1, 72 h
Description: Antiplasmodial activity against Plasmodium falciparum SB1 after 72 hrs by SYBR I method

**Q.** With O=C1C(O)=C([C@H]2CC[C@H](c3ccc(Cl)cc3)CC2)C(=O)c2ccccc21 [ATOVAQUONE] as the molecule, how does the IC50 read?
**A.** > 2 µM

**Q.** Which IC50 does the source give for Nc1nc2ccc(C(F)(F)F)cc2n1CC(O)c1ccc(C(F)(F)F)cc1Cl (racemic) here?
**A.** 0.121 µM

**Q.** Which IC50 does the source give for Nc1nc2ccccc2n1-c1ccccc1O here?
**A.** 0.164 µM

**Q.** For Nc1ncccc1CC(O)c1cccc(Cl)c1Cl (racemic), which IC50 is on record?
**A.** 0.472 µM

Target: Voltage-gated inwardly rectifying potassium channel KCNH2 (Homo sapiens, UniProt Q12809)
Assay: Inhibition of human ERG
Settings: not given

Voltage-gated inwardly rectifying potassium channel KCNH2, sequence (Q12809 whole entry): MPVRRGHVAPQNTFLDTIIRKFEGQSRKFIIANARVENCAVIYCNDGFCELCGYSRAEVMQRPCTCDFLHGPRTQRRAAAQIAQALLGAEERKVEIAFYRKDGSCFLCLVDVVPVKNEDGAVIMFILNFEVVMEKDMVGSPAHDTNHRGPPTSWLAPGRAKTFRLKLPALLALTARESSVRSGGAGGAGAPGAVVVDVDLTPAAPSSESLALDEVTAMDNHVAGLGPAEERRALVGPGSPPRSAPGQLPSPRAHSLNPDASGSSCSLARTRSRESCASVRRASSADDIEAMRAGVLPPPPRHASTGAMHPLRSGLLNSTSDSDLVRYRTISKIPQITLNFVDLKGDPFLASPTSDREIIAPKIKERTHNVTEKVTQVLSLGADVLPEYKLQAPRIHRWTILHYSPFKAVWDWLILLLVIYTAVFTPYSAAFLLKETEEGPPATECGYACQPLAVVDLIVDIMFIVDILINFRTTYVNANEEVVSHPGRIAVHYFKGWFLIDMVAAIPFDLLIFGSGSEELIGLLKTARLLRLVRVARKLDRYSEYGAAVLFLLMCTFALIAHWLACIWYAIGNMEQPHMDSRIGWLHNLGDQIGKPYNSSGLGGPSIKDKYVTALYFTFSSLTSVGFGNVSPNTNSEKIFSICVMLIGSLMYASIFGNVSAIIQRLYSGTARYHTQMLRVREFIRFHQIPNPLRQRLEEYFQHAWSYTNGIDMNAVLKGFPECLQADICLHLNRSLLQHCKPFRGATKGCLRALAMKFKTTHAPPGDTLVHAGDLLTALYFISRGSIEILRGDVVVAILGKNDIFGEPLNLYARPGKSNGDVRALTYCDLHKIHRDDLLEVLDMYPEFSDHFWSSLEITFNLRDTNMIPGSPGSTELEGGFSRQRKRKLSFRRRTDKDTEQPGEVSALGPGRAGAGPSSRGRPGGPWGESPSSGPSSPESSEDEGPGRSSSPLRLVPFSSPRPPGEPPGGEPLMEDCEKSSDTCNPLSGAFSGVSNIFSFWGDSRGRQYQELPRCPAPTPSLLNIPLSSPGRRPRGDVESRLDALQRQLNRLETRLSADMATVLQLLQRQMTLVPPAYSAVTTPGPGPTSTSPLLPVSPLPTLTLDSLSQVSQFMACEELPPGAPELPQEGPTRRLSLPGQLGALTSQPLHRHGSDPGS

**Q.** With Nc1nc2ccc(C(F)(F)F)cc2n1CC(O)c1ccc(C(F)(F)F)cc1Cl (racemic) as the molecule, how does the IC50 read?
**A.** > 10.5 µM

System: not listed separately
Assay: Clearance in mouse liver microsomes
Format: ADME
Settings: read-out: CLH

**Q.** For Nc1nc2ccc(C(F)(F)F)cc2n1CC(O)c1ccc(C(F)(F)F)cc1Cl (racemic), which microsomal CLint is on record?
**A.** 62 µL/min/mg
